Patent US9624201B2, “Inhibitors of bruton's tyrosine kinase” (Hoffmann-La Roche Inc., priority 2013, dated 2017)

Molecular target: Bruton's Tyrosine Kinase (inactivated state) (Homo sapiens (Human), UniProt Q06187)
Assay: Bruton's Tyrosine Kinase (BTK) Inhibition TR-FRET (Time Resolved FRET) competition assay
Type: binding
Settings: inactivated state of BTK; Kinase Tracer 178; incubated 18-24 h at 14° C.
Description: This BTK competition assay measures compound potency (IC50) for the inactivated state of Bruton's Tyrosine Kinase using FRET (Forster/Flouresence Resonance Energy Transfer) technology. The BTK-Eu complex was incubated on ice one hour prior to use at a starting concentration of 50 nM BTK-Bioease™: 10 nM Eu-streptavidin (Perkin-Elmer Catalog# AD0062). The assay buffer consisted of 20 mM HEPES (pH 7.15), 0.1 mM DTT, 10 mM MgCl2, 0.5 mg/ml BSA with 3% Kinase Stabilizer (Fremont Biosolutions, Catalog # STB-K02). After 1 h, the reaction mixture from above was diluted 10 fold in assay buffer to make 5 nM BTK: 1 nM Eu-Streptavidin complex (donor fluorophore). 18 μl of a mixture of 0.11 nM BTK-Eu and 0.11 nM Kinase Tracer 178 (Invitrogen, Catalog # PV5593,) with BTK-Eu alone as no negative control, was then dispensed into 384-well flat bottom plates (Greiner, 784076). Compounds to be tested in assay were prepared as 10× concentrations and serial dilution in half-log increments was performed in DMSO so as to generate 10 point curves. To initiate the FRET reaction, compounds prepared as 10× stock in DMSO was added to the plates and the plates were incubated 18-24 h at 14° C.
After the incubation the plates were read on a BMG Pherastar Fluorescent plate reader (or equivalent) and used to measure the emission energy from the europium donor fluorophore (620 nm emission) and the FRET (665 nm emission). The negative control well values were averaged to obtain the mean minimum. The positive “no inhibitor” control wells were averaged to obtain the mean maximum. Percent of maximal FRET was calculated using following equation: % max FRET=100×[(FSRcmpd−FSRmean min)/(FSRmean max−FSRmean min)] where FSR=FRET Signal ratio. % Max FRET curves were plotted in Activity Base (Excel) and the IC50(%), hill slope, z′ and % CV were determined. The mean IC50 and standard deviation will be derived from duplicate curves (singlet inhibition curves from two independent dilutions) using Microsoft Excel.

Sequence of Bruton's Tyrosine Kinase (inactivated state) (Q06187 whole entry): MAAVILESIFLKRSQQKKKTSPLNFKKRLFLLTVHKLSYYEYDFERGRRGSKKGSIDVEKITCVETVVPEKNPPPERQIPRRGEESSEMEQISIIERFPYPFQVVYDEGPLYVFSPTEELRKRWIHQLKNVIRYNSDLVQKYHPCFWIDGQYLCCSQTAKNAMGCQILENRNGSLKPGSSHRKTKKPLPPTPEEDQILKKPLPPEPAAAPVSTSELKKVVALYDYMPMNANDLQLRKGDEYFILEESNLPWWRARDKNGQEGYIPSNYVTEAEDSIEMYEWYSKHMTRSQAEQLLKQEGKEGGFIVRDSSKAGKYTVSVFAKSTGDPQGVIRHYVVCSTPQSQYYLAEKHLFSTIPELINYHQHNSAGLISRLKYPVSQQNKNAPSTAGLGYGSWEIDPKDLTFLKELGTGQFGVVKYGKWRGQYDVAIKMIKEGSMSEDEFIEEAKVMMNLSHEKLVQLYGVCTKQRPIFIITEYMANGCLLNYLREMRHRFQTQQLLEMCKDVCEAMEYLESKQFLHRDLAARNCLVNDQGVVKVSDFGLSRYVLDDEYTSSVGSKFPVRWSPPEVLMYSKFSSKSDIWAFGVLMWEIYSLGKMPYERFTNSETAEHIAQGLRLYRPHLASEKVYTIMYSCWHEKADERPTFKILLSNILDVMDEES

| Compound | IC50 [nM] |
| --- | --- |
| Cc1cc(Oc2cccc(F)c2F)ccc1-n1ncc(C(=O)c2cc3c(Br)cccc3[nH]2)c1N [Compound 1, {5-Amino-1-[4-(2,3-difluoro-phenoxy)-2-methyl-phenyl]-1H-pyrazol-4-yl}-(4-bromo-1H-indol-2-yl)-methanone] | 61.5 |
| Cc1cc(Oc2cccc(F)c2F)ccc1-n1ncc(C(=O)c2cc3c(-c4ccccc4)cccc3[nH]2)c1N [Compound 2, {5-Amino-1-[4-(2,3-difluoro-phenoxy)-2-methyl-phenyl]-1H-pyrazol-4-yl}-(4-phenyl-1H-indol-2-yl)-methanone] | 85.1 |
| Cc1cc(Oc2cccc(F)c2F)ccc1-n1ncc(C(=O)c2cc3c(-c4ccsc4)cccc3[nH]2)c1N [Compound 3, {5-Amino-1-[4-(2,3-difluoro-phenoxy)-2-methyl-phenyl]-1H-pyrazol-4-yl}-(4-thiophen-3-yl-1H-indol-2-yl)-methanone] | 106 |
| Cc1cc(Oc2cccc(F)c2F)ccc1-n1ncc(C(=O)c2cc3c(-n4cccn4)cccc3[nH]2)c1N [Compound 4, {5-Amino-1-[4-(2,3-difluoro-phenoxy)-2-methyl-phenyl]-1H-pyrazol-4-yl}-(4-pyrazol-1-yl-1H-indol-2-yl)-methanone] | 20.8 |
| Cc1cc(Oc2cccc(F)c2F)ccc1-n1ncc(C(=O)c2cc3c(C(=O)N4CCOCC4)cccc3[nH]2)c1N [Compound 6, {5-Amino-1-[4-(2,3-difluoro-phenoxy)-2-methyl-phenyl]-1H-pyrazol-4-yl}-[4-(morpholine-4-carbonyl)-1H-indol-2-yl]-methanone] | 11.9 |
| Cc1cc(Oc2cccc(F)c2F)ccc1-n1ncc(C(=O)c2cc3c(-c4ccccn4)cccc3[nH]2)c1N [Compound 8, {5-Amino-1-[4-(2,3-difluoro-phenoxy)-2-methyl-phenyl]-1H-pyrazol-4-yl}-(4-pyridin-2-yl-1H-indol-2-yl)-methanone] | 6.15 |
| Cc1cc(Oc2cccc(F)c2F)ccc1-n1ncc(C(=O)c2cc3c(-c4cn[nH]c4)cccc3[nH]2)c1N [Compound 10, {5-Amino-1-[4-(2,3-difluoro-phenoxy)-2-methyl-phenyl]-1H-pyrazol-4-yl}-[4-(1H-pyrazol-4-yl)-1H-indol-2-yl]-methanone] | 4.21 |
| COc1cccc(Cc2cccc3[nH]c(C(=O)c4cnn(-c5ccc(Oc6cccc(C#N)c6)cc5C)c4N)cc23)c1 [Compound 17, 3-(4-{5-Amino-4-[4-(3-methoxy-benzyl)-1H-indole-2-carbonyl]-pyrazol-1-yl}-3-methyl-phenoxy)-benzonitrile] | 21.1 |
| CNC(=O)c1cccc2[nH]c(C(=O)c3cnn(-c4ccc(Oc5cccc(C#N)c5)cc4C)c3N)cc12 [Compound 21, 2-{5-Amino-1-[4-(3-cyano-phenoxy)-2-methyl-phenyl]-1H-pyrazole-4-carbonyl}-1H-indole-4-carboxylic acid methylamide] | 13 |
| {5-Amino-1-[4-(2,3-difluoro-phenoxy)-2-methyl-phenyl]-1H-pyrazol-4-yl}-[4-(1-methyl-1H-pyrazol-4-yl)-1H-indol-2-yl]-methanone [Compound 7] | 65.3 |

Other lines, results leading:

| IC50 [nM] | Compound |
| --- | --- |
| 214 | Cc1cc(Oc2cccc(F)c2F)ccc1-n1ncc(C(=O)c2cc3c(-c4cccs4)cccc3[nH]2)c1N [Compound 5, {5-Amino-1-[4-(2,3-difluoro-phenoxy)-2-methyl-phenyl]-1H-pyrazol-4-yl}-(4-thiophen-2-yl-1H-indol-2-yl)-methanone] |
| 33.1 | Cc1cc(Oc2cccc(F)c2F)ccc1-n1ncc(C(=O)c2cc3c(Cc4ccccc4)cccc3[nH]2)c1N [Compound 9, {5-Amino-1-[4-(2,3-difluoro-phenoxy)-2-methyl-phenyl]-1H-pyrazol-4-yl}-(4-benzyl-1H-indol-2-yl)-methanone] |
| 59.1 | Cc1cc(Oc2cccc(F)c2F)ccc1-n1ncc(C(=O)c2cc3c(-c4cccc(C#N)c4)cccc3[nH]2)c1N [Compound 11, 3-(2-{5-Amino-1-[4-(2,3-difluoro-phenoxy)-2-methyl-phenyl]-1H-pyrazole-4-carbonyl}-1H-indol-4-yl)-benzonitrile] |
| 201 | Cc1cc(Oc2cccc(F)c2F)ccc1-n1ncc(C(=O)c2cc3c(-c4cccc(Cl)c4)cccc3[nH]2)c1N [Compound 12, {5-Amino-1-[4-(2,3-difluoro-phenoxy)-2-methyl-phenyl]-1H-pyrazol-4-yl}-[4-(3-chloro-phenyl)-1H-indol-2-yl]-methanone] |
| 29.5 | Cc1cc(Oc2cccc(F)c2F)ccc1-n1ncc(C(=O)c2cc3c(Cc4cccc(C#N)c4)cccc3[nH]2)c1N [Compound 13, 3-(2-{5-Amino-1-[4-(2,3-difluoro-phenoxy)-2-methyl-phenyl]-1H-pyrazole-4-carbonyl}-1H-indol-4-ylmethyl)-benzonitrile] |
| 8.38 | Cc1cc(Oc2cccc(C#N)c2)ccc1-n1ncc(C(=O)c2cc3c(-c4cn[nH]c4)cccc3[nH]2)c1N [Compound 14, 3-(4-{5-Amino-4-[4-(1H-pyrazol-4-yl)-1H-indole-2-carbonyl]-pyrazol-1-yl}-3-methyl-phenoxy)-benzonitrile] |
| 93.6 | Cc1cc(Oc2cccc(C#N)c2)ccc1-n1ncc(C(=O)c2cc3c(C(=O)N4CCOCC4)cccc3[nH]2)c1N [Compound 15, 3-(4-{5-Amino-4-[4-(morpholine-4-carbonyl)-1H-indole-2-carbonyl]-pyrazol-1-yl}-3-methyl-phenoxy)-benzonitrile] |
| 39.1 | Cc1cc(Oc2cccc(C#N)c2)ccc1-n1ncc(C(=O)c2cc3c(C(=O)N4CCN(C)CC4)cccc3[nH]2)c1N [Compound 16, 3-(4-{5-Amino-4-[4-(4-methyl-piperazine-1-carbonyl)-1H-indole-2-carbonyl]-pyrazol-1-yl}-3-methyl-phenoxy)-benzonitrile] |
| 8.45 | Cc1cc(Oc2cccc(C#N)c2)ccc1-n1ncc(C(=O)c2cc3c(CC#N)cccc3[nH]2)c1N [Compound 20, 3-{4-[5-Amino-4-(4-cyanomethyl-1H-indole-2-carbonyl)-pyrazol-1-yl]-3-methyl-phenoxy}-benzonitrile] |
